{
  "source": "patent US10233178B2",
  "about": "“Arylcyclopropylamine based demethylase inhibitors of LSD1 and their medical use” (priority 2010, dated 2019)",
  "key": {"MAO-B": {"target": "MAO-B (Homo sapiens (Human), UniProt P27338)", "sequence (P27338 whole entry)": "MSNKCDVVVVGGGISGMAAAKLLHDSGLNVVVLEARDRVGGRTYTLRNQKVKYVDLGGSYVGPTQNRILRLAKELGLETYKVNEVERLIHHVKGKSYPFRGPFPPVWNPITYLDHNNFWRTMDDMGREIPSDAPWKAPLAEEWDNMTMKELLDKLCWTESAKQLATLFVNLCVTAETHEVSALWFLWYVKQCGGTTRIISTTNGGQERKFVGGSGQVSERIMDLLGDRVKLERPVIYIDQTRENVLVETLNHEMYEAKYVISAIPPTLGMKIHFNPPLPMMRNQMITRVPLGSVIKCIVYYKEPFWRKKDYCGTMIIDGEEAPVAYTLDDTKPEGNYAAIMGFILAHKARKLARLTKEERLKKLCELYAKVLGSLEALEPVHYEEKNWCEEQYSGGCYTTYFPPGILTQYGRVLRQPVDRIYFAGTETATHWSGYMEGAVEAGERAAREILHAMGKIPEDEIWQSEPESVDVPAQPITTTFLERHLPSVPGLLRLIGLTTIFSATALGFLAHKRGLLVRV", "assay": "biochemical", "experimental": "For MAO-B, the protein was kept between 1.8 and 3.6 ng/ul (Sigma M7441) and kynuramine (Sigma) at 50 uM was used as substrate."}, "MAO-A": {"target": "MAO-A (Homo sapiens (Human), UniProt P21397)", "sequence (P21397 whole entry)": "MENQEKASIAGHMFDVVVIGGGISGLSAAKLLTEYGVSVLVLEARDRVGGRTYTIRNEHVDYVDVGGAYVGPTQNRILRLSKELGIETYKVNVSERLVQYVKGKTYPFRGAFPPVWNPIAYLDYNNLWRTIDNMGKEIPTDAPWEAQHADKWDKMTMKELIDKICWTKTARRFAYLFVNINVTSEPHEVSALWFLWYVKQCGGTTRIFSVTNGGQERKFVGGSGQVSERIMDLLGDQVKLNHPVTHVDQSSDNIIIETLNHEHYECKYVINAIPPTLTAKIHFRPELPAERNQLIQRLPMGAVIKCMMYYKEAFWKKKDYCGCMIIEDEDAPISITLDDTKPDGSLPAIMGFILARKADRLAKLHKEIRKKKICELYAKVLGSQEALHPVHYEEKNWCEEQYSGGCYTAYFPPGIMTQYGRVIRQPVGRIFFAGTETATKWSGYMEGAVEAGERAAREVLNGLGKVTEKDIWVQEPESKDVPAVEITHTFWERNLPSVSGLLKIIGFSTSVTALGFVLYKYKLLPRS", "assay": "biochemical"}},
  "data": [
    {"smiles": "C#CCN[C@@H]1CCc2ccccc21", "note": "[Rasagiline]", "values": [
      {"measurement": "kinact/KI", "setting": "MAO-B", "result": 7460, "unit": "M⁻¹ s⁻¹"},
      {"measurement": "kinact/KI", "setting": "MAO-A", "result": 62, "unit": "M⁻¹ s⁻¹"}
    ]}
  ]
}
